In article PMC5988656, “Phase I studies of AZD1208, a proviral integration Moloney virus kinase inhibitor in solid and haematological cancers” (British Journal of Cancer, 2018):

System: patients with advanced solid tumours
Assay: Solid tumour dose-escalation study: safety and tolerability (AEs, DLTs)
Source text: Conducted at two UK centres and one in Japan. Dose escalation followed a rolling six design.[14] Patients received a single dose on Day 1 during Cycle 0, followed by a 3-day washout period, after which multiple dosing was initiated. Cycle 1 was a 21-day period from the first dose of multiple dosing.
The CTCAE (version 4.0) was utilised to grade all AE events.
AEs were summarised by Medical Dictionary for Regulatory Activities (MedDRA) system organ class, MedDRA preferred term and CTCAE grade. Summary statistics of mean, median, standard deviation, minimum, maximum and number of observations were used.

## N[C@@H]1CCCN(c2c(/C=C3\SC(=O)NC3=O)cccc2-c2ccccc2)C1 [AZD1208]
540 mg, n = 7
  White blood cell count decreased (all-grade AE): 2 (28.6) n (%)
700 mg
  Patients requiring dose interruptions because of AEs: 3 n
700 mg (nausea, fatigue)
  Patients with CTCAE grade ≥3 AEs causally related to AZD1208: 1 n
700 mg, n = 6
  Anaemia (all-grade AE): 3 (50.0) n (%)
  Constipation (all-grade AE): 2 (33.3) n (%)
  Decreased appetite (all-grade AE): 2 (33.3) n (%)
  Diarrhoea (all-grade AE): 5 (83.3) n (%)
  Dry skin (all-grade AE): 1 (16.7) n (%)
  Dyspnoea (all-grade AE): 0 (0.0) n (%)
  Fatigue (all-grade AE): 4 (66.7) n (%)
  GGT increased (all-grade AE): 0 (0.0) n (%)
  Hyperglycaemia (all-grade AE): 0 (0.0) n (%)
  Hypoalbuminaemia (all-grade AE): 3 (50.0) n (%)
  Hypokalaemia (all-grade AE): 1 (16.7) n (%)
  Hyponatraemia (all-grade AE): 1 (16.7) n (%)
  Insomnia (all-grade AE): 0 (0.0) n (%)
  Musculoskeletal chest pain (all-grade AE): 1 (16.7) n (%)
  Nausea (all-grade AE): 5 (83.3) n (%)
  Patients with any AE (all-grade AE): 6 (100.0) n (%)
  Platelet count decreased (all-grade AE): 1 (16.7) n (%)
  Pyrexia (all-grade AE): 2 (33.3) n (%)
  Thrombocytopenia (all-grade AE): 1 (16.7) n (%)
  Vomiting (all-grade AE): 4 (66.7) n (%)
  White blood cell count decreased (all-grade AE): 1 (16.7) n (%)
800 mg
  Patients requiring dose interruptions because of AEs: 2 n
800 mg (fatigue, hyperglycaemia)
  Patients with CTCAE grade ≥3 AEs causally related to AZD1208: 3 n
800 mg QD
  Tolerability: not tolerated
800 mg, n = 6
  Abdominal pain (all-grade AE): 0 (0.0) n (%)
  Anaemia (all-grade AE): 2 (33.3) n (%)
  Constipation (all-grade AE): 0 (0.0) n (%)
  DLT detail, action taken: Fatigue, drug interrupted; fatigue, drug interrupted
  Decreased appetite (all-grade AE): 3 (50.0) n (%)
  Diarrhoea (all-grade AE): 6 (100.0) n (%)
  Dry skin (all-grade AE): 0 (0.0) n (%)
  Dyspnoea (all-grade AE): 0 (0.0) n (%)
  Fatigue (all-grade AE): 5 (83.3) n (%)
  GGT increased (all-grade AE): 1 (16.7) n (%)
  Hyperglycaemia (all-grade AE): 2 (33.3) n (%)
  Hypoalbuminaemia (all-grade AE): 0 (0.0) n (%)
  Hypokalaemia (all-grade AE): 1 (16.7) n (%)
  Hyponatraemia (all-grade AE): 0 (0.0) n (%)
  Insomnia (all-grade AE): 1 (16.7) n (%)
  Musculoskeletal chest pain (all-grade AE): 0 (0.0) n (%)
  Nausea (all-grade AE): 4 (66.7) n (%)
  Patients with any AE (all-grade AE): 6 (100.0) n (%)
  Platelet count decreased (all-grade AE): 1 (16.7) n (%)
  Pyrexia (all-grade AE): 0 (0.0) n (%)
  Thrombocytopenia (all-grade AE): 1 (16.7) n (%)
  Vomiting (all-grade AE): 3 (50.0) n (%)
  White blood cell count decreased (all-grade AE): 0 (0.0) n (%)
Total N = 35
  Abdominal pain (all-grade AE): 8 (22.9) n (%)
  Anaemia (all-grade AE): 18 (51.4) n (%)
  Constipation (all-grade AE): 5 (14.3) n (%)
  Decreased appetite (all-grade AE): 15 (42.9) n (%)
  Diarrhoea (all-grade AE): 29 (82.9) n (%)
  Dry skin (all-grade AE): 7 (20.0) n (%)
  Dyspnoea (all-grade AE): 4 (11.4) n (%)
  Fatigue (all-grade AE): 17 (48.6) n (%)
  GGT increased (all-grade AE): 6 (17.1) n (%)
  Hyperglycaemia (all-grade AE): 8 (22.9) n (%)
  Hypoalbuminaemia (all-grade AE): 9 (25.7) n (%)
  Hypokalaemia (all-grade AE): 4 (11.4) n (%)
  Hyponatraemia (all-grade AE): 5 (14.3) n (%)
  Insomnia (all-grade AE): 4 (11.4) n (%)
  Musculoskeletal chest pain (all-grade AE): 4 (11.4) n (%)
  Nausea (all-grade AE): 26 (74.3) n (%)
  Patients with any AE (all-grade AE): 35 (100.0) n (%)
  Platelet count decreased (all-grade AE): 9 (25.7) n (%)
  Pyrexia (all-grade AE): 6 (17.1) n (%)
  Thrombocytopenia (all-grade AE): 5 (14.3) n (%)
  Vomiting (all-grade AE): 19 (54.3) n (%)
  White blood cell count decreased (all-grade AE): 9 (25.7) n (%)
All doses
  Patients with DLTs: Four
All doses, 35 patients
  AEs of grade ≥3, patients: 45.7%
  CTCAE grade ≥3 AEs causally related to AZD1208, patients: 28.6%
  CTCAE grade ≥3 GGT increase, patients: 8.6%
  CTCAE grade ≥3 abdominal pain, patients: 5.7%
  CTCAE grade ≥3 anaemia, patients: 5.7%
  CTCAE grade ≥3 fatigue, patients: 11.4%
  Diarrhoea causally related to AZD1208, patients: 68.6%
  Diarrhoea, patients: 82.9%
  Discontinued the study due to an AE, patients: 11.4%
  Dose interruptions because of AEs, patients: 45.7%
  Gastrointestinal disorders AEs, patients: 97.1%
  Nausea causally related to AZD1208, patients: 65.7%
  Nausea, patients: 74.3%
  Patients with ≥1 SAE: 22.9%
  SAE dyspnoea, patients: 5.7%
  SAE vomiting, patients: 5.7%
  Vomiting, patients: 54.3%
Any patient
  Treatment-related changes in haematology, clinical chemistry, vital signs, ECG or physical findings: No clinically significant treatment-related changes
Not considered AZD1208-related by the investigator
  Patients who died as a result of an AE: 2.9%
One patient, three SAEs (vomiting, fatigue, general physical health deterioration)
  Patients reporting treatment-related SAEs: 2.9%
Solid tumour study
  Doses tolerated as monotherapy: up to 700 mg QD
  Maximum tolerated dose (MTD): could not be determined
